In article PMC6309520 (Cell chemical biology, 2018):

Target: T1, ARH3 (ADP-ribosyl hydrolase 3, ADPRHL2) (Homo sapiens, UniProt Q9NX46)
T1 sequence (Q9NX46 1-363): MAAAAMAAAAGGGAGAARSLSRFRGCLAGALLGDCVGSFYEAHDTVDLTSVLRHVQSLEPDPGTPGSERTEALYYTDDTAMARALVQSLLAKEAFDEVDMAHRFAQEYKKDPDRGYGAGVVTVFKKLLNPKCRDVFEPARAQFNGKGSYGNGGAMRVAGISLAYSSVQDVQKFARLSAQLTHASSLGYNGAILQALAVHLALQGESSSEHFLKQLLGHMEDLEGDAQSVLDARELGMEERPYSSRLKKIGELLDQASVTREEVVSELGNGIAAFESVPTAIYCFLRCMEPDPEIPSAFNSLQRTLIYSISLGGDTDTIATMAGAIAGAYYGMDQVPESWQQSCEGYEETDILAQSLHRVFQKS
Test: Michaelis-Menten kinetics
Format: biochemical

`O=c1cc(C(F)(F)F)c2ccc(O[C@H]3O[C@H](COP(=O)(O)OP(=O)(O)OC[C@H]4O[C@@H](n5cnc6c(=O)[nH]cnc65)[C@H](O)[C@@H]4O)[C@@H](O)[C@H]3O)cc2o1` [compound 12, TFMU-IDPr] gave a Km of 312 ± 30 µM.
